Results taken from the supplement of paper PMC4862054.
Values joined by “and” are separate entries in the source; they are usually repeats but may differ in a detail not shown here. Identical values can stand only once.

What was measured:
Details in all cases: incubation time: 72 h
BT-474 [1] = experiment: drug sensitivity score (DSS), CellTiter-Blue viability (DSS (AUC-based score)); higher = stronger viability inhibition; extreme values may be limits of the assay
Method: (§1)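 DSRT with the CellTiter-Blue (resazurin reduction) viability readout, fluorescence 560/590 nm, 72 h incubation. Plates were normalised to DMSO and benzethonium chloride controls. DSS is computed from the area under the fitted dose-response curve (5 or 9 concentrations).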

BT-549 [2] = experiment: as above
Method: as §1

CAL-120 = experiment: as above
Method: as §1

CAL-148 = experiment: as above
Method: as §1

CAL-51 = experiment: as above
Method: as §1

CAL-85-1 = experiment: as above
Method: as §1

DU-4475 [3] = experiment: as above
Method: as §1

HCC1143 [4] = experiment: as above
Method: as §1

HCC1599 = experiment: as above
Method: as §1

HCC1937 = experiment: as above
Method: as §1

HDQ-P1 = experiment: as above
Method: as §1

Hs578T = experiment: as above
Method: as §1

MDA-MB-231 [5] = experiment: as above
Method: as §1

MDA-MB-436 [6] = experiment: as above
Method: as §1

MDA-MB-453 = experiment: as above
Method: as §1

MDA-MB-468 [7] = experiment: as above
Method: as §1

MFM-223 = experiment: as above
Method: as §1

SK-BR-3 = experiment: as above
Method: as §1

BT-474 [8] = experiment: drug sensitivity score (DSS), CellTiter-Glo (DSS (AUC-based score)); higher = stronger drug effect (viability inhibition or cytotoxicity); extreme values may be limits of the assay
Method in brief: (§2)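 After 72 h of incubation in 384-well plates with compound at 5 concentrations (10-fold steps, 10,000-fold range set per compound), breast cancer cell lines seeded in 20 µl suspension were read first for CellTox Green fluorescence at 485/520 nm. CellTiter-Glo luminescence was measured next, after 10 min at room temperature. Normalisation on each plate used 0.1 % DMSO and a positive kill control, and the drug sensitivity score was computed from the area under the fitted dose-response curve.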

BT-549 [9] = experiment: as above
Method in brief: as §2

DU-4475 [10] = experiment: as above
Method in brief: as §2

HCC1143 [11] = experiment: as above
Method in brief: as §2

MCF-10A = experiment: as above
Method in brief: as §2

MDA-MB-231 [12] = experiment: as above
Method in brief: as §2

MDA-MB-436 [13] = experiment: as above
Method in brief: as §2

MDA-MB-468 [14] = experiment: as above
Method in brief: as §2

Structure (SMILES) | drug sensitivity score (BT-474 [1]) | drug sensitivity score (BT-549 [2]) | drug sensitivity score (CAL-120) | drug sensitivity score (CAL-148) | drug sensitivity score (CAL-51) | drug sensitivity score (CAL-85-1) | drug sensitivity score (DU-4475 [3]) | drug sensitivity score (HCC1143 [4]) | drug sensitivity score (HCC1599) | drug sensitivity score (HCC1937) | drug sensitivity score (HDQ-P1) | drug sensitivity score (Hs578T) | drug sensitivity score (MDA-MB-231 [5]) | drug sensitivity score (MDA-MB-436 [6]) | drug sensitivity score (MDA-MB-453) | drug sensitivity score (MDA-MB-468 [7]) | drug sensitivity score (MFM-223) | drug sensitivity score (SK-BR-3) | drug sensitivity score (BT-474 [8]) | drug sensitivity score (BT-549 [9]) | drug sensitivity score (DU-4475 [10]) | drug sensitivity score (HCC1143 [11]) | drug sensitivity score (MCF-10A) | drug sensitivity score (MDA-MB-231 [12]) | drug sensitivity score (MDA-MB-436 [13]) | drug sensitivity score (MDA-MB-468 [14])
Cc1cc(Nc2nc(N[C@@H](C)c3ncc(F)cn3)ncc2Cl)[nH]n1 [AZD1480] | 0 | 0 | 0 | 0 | 0 | 0 | 0.841 | 0 | 1.53 | 0 | 0 | 0 | 0 | 0 | 0.912 | 0 | 7.5 | 0 | 0 | 0 | 0 | 0 | 0 | 0 | 0 | 0
CC1(C)CCC(c2ccc(Cl)cc2)=C(CN2CCN(c3ccc(C(=O)NS(=O)(=O)c4ccc(N[C@H](CCN5CCOCC5)CSc5ccccc5)c(S(=O)(=O)C(F)(F)F)c4)cc3)CC2)C1 [Navitoclax] | 0 | 3.17 | 6.12 | 4.37 | 0 | 0 | 17.2 | 0 | 5.97 | 0 | 9.87 | 0 | 7.75 | 0 | 0 | 3.12 | 2.7 | 0 | 9.19 | 0.252 | 1.89 | 0 | 0 | 11.1 | 0 | 4.81
C=CCN(/C=C1/C(=O)O[C@H](COC)[C@@]2(C)C1=C(O)C(=O)C1=C2[C@H](OC(C)=O)C[C@]2(C)C(=O)CC[C@@H]12)CC=C [PX-866] | 5.22 | 0 | 2.93 | 0 | 0 | 0 | 0 | 3.95 | 0 | 5.15 | 3.65 | 3.48 | 5.75 | 0 | 0 | 8.51 | 0 | 9.05 |  |  |  |  |  |  |  | 
CC[C@H](CO)Nc1nc(NCc2ccccc2)c2ncn(C(C)C)c2n1 [Seliciclib] |  |  |  |  |  |  |  |  |  |  |  |  |  |  |  |  |  |  | 0.844 | 1.15 | 0 | 0 | 0 | 0 | 0 | 0
O=[N+]([O-])c1ccc2c(c1)S(=O)(=O)C=C2 [Stattic] |  |  |  |  |  |  |  |  |  |  |  |  |  |  |  |  |  |  | 9.26 | 20.4 | 5.46 | 6.56 | 5.13 | 14.4 | 9.28 | 24.4
CN(Cc1cnc2nc(N)nc(N)c2n1)c1ccc(C(=O)N[C@@H](CCC(=O)O)C(=O)O)cc1 [Methotrexate] | 0 | 0 | 17.3 | 9.98 | 15.1 | 9.69 | 0 | 10.5 | 0 | 0 | 0 | 4.17 | 0 | 0 | 0 | 18.6 | 0 | 16.2 | 7.54 | 0 | 0 | 0 | 0 | 7.21 | 3.7 | 0
C=CCN(/C=C1/C(=O)O[C@H](COC)[C@@]2(C)C1=C(O)C(=O)C1=C2[C@H](OC(C)=O)C[C@]2(C)C(=O)CC[C@@H]12)CC=C [Sonolisib] |  |  |  |  |  |  |  |  |  |  |  |  |  |  |  |  |  |  | 0 | 0.766 | 0 | 0 | 0 | 0 | 0 | 0
CCN(CC)CCCC(C)Nc1ccnc2cc(Cl)ccc12 (configuration not stated) [Chloroquine] | 0 | 0 | 0 | 0 | 0 | 0 | 0 | 0 | 0 | 0 | 0 | 0 | 0 | 0 | 0 | 0 | 0 | 0 | 9.59 | 9.55 | 8.35 | 4.28 | 8.64 | 9.09 | 9.03 | 10.8
COc1c2occc2cc2ccc(=O)oc12 [Methoxsalen] | 0 | 0 | 0 | 1.28 | 0 | 0.682 | 0.558 | 0 | 0 | 0 | 0 | 0 | 0 | 0 | 1.68 | 0 | 0 | 0 |  |  |  |  |  |  |  | 
CC(C)(C)NC(=O)[C@H]1CC[C@H]2[C@@H]3CC[C@H]4NC(=O)C=C[C@]4(C)[C@H]3CC[C@]12C [Finasteride] | 0 | 0 | 0 | 1.45 | 1.63 | 0 | 3.01 | 0 | 0 | 0 | 0 | 0 | 0 | 0 | 1.81 | 0 | 1.79 | 0 | 0 | 0 | 0 | 0 | 0 | 0 | 0 | 0
O=C(CCCCCCC(=O)Nc1ccccc1)NO [Vorinostat] | 6.34 and 8.1 | 4.56 and 4.64 | 9.7 and 7.55 | 5.26 and 4.8 | 0.68 and 0.982 | 4.59 and 3.98 |  | 4.79 and 6.75 | 6.85 and 2.71 | 6.22 and 7.75 | 3.82 and 8.64 | 5.57 and 5.8 | 5.31 and 5.33 | 8.55 and 3.68 | 11.4 and 11.6 | 6.66 and 5.72 | 7.1 and 6.77 | 14.2 and 12.8 | 4.8 | 1.14 | 5.43 | 4.04 | 1.17 | 5.59 | 0 | 8.49
CN(C)C(=N)NC(=N)N [Metformin] |  |  |  |  |  |  |  |  |  |  |  |  |  |  |  |  |  |  | 0 | 0 | 0 | 0 | 0 | 0 | 0 | 0.63
O=C(O)CNC(=O)c1c(O)c2ccccc2n(Cc2ccccc2)c1=O [IOX-2] |  |  |  |  |  |  |  |  |  |  |  |  |  |  |  |  |  |  | 0 | 0.135 | 0 | 0 | 0 | 0 | 0 | 0
CCn1c(C(=O)N(C2CC2)C2CC2)cc2c3c(ncn3C)c(Nc3cc(C)n(C)n3)nc21 |  |  |  |  |  |  |  |  |  |  |  |  |  |  |  |  |  |  | 0 | 0 | 0 | 0 | 0 | 0 | 0 | 0.0233
CC1(COc2ccc3c(c2)ncn3-c2ccc3cccc(N4CCC(N)CC4)c3n2)COC1 [Crenolanib] |  |  |  |  |  |  |  |  |  |  |  |  |  |  |  |  |  |  | 4.44 | 7.22 | 4.23 | 0 | 3.64 | 4.35 | 4.37 | 3.61
CC(C)n1cnc2c(NCCc3ccc(O)cc3)nc(-c3csc4ccccc34)nc21 [StemRegenin 1] |  |  |  |  |  |  |  |  |  |  |  |  |  |  |  |  |  |  | 0 | 3.44 | 0 | 0 | 0 | 0 | 0.344 | 0.986
CN[C@@H](C)C(=O)N[C@H]1CN(C(=O)CC(C)C)CC[C@H]2CC[C@@H](C(=O)NC(c3ccccc3)c3ccccc3)N2C1=O [AT-406] |  |  |  |  |  |  |  |  |  |  |  |  |  |  |  |  |  |  | 20.1 | 17.3 | 0 | 0 | 0 | 16 | 0 | 4.99
CC[C@H](CO)Nc1nc(NCc2ccccc2)c2ncn(C(C)C)c2n1 [Roscovitine] | 0 | 2.4 | 0 | 0 | 0 | 0 | 0 | 5.44 | 2.39 | 0 | 0 | 2.74 | 0 | 0.894 | 0 | 0 | 0 | 0 |  |  |  |  |  |  |  | 
CC(C)(C)c1nc(-c2cccc(NS(=O)(=O)c3c(F)cccc3F)c2F)c(-c2ccnc(N)n2)s1 [Dabrafenib] |  |  |  |  |  |  |  |  |  |  |  |  |  |  |  |  |  |  | 0 | 0 | 19 | 0 | 0 | 0 | 0 | 0
Cc1nc(C(=O)NCC(=O)O)c(O)c2ccc(Oc3ccccc3)cc12 [FG-4592] |  |  |  |  |  |  |  |  |  |  |  |  |  |  |  |  |  |  | 0 | 0 | 0 | 0 | 0 | 0 | 0 | 0
